# US20200333324A1, “METHOD OF PREDICTING CLINICAL OUTCOME OF ANTICANCER AGENTS” (MITRA RXDX, INC., priority 2017, published 2020)
# How the values were obtained:
# Assay type in all cases: cell-based, human
# HNSCC tumor tissue [1] = assay: M-score clinical outcome predictor: tumor microenvironment platform assays (WST-1, LDH, ATP, glucose uptake, Caspase 3/8, Ki67, H&E) input into machine-trained algorithm; set-up: scale not given here
# PBNCs = assay: FACS of CD3+/CD45+ lymphocytes for PD-1, CEACAM, LAG3, TIM3, OX40, ILDR2, 4-1-BB, GITR, PBNCs
# Experimental: To further probe the phenotypic modulation mediated by treatment with Nivolumab, tumor sections or PBNCs from the same patient cultured for 3 days (72 hours) in the tumor microenvironment platform were treated with Nivolumab or IgG control for one day, followed by flow cytometry gating for lymphocytes based on their forward and side scatter properties. Lymphocytes were further gated for expression of both CD3 and CD45, and this population of cells was analyzed by FACS for expression of PD-1, CEACAM, LAG3, TIM3, OX40, ILDR2, 4-1-BB, and GITR.
# HNSCC tumor tissue [2] = assay: M-score clinical outcome predictor: tumor microenvironment platform assays (WST-1, LDH, ATP, glucose uptake, Caspase 3/8, Ki67, H&E) input into machine-trained algorithm; set-up: scale not given here; remark: listed apart in the source
# From the text: Utilizing primary and late stage HNSCC patient samples (n=16) we interrogated phenotypic response to both Pembrolizumab (KEYTRUDA) and Nivolumab (OPDIVO), two FDA-approved PD-1 inhibitors, as single agents on the tumor microenvironment platform with tumor tissue from the same patient. To do this, we assayed tumor proliferation (Ki67) and apoptosis (active caspase-3), in addition to using a comprehensive panel of immunological assays to evaluate changes in the immune compartment (CD8, CD45, FOXP3, CXCR4, CD68, PDL1, PD1) and cytokine profile (IL6, IL8, IFN-g and IL12).
# HNSCC tumor tissue [3] = assay: IHC for CD8, PD-L1, PD-1 and FOXP3 positive cells in tumor microenvironment platform; settings: T3
# Experimental: The effect of Pembrolizumab and Nivolumab on CD8^+ T cell tumor infiltration was then evaluated. Tumor sections from the same patient cultured for 72 hours in the tumor microenvironment platform were treated with Pembrolizumab, Nivolumab, or IgG as control and stained for H&E, Ki67, Caspase 3, and CD8 at day 3 in culture (T3). Baseline staining was determined at TO. […] To further elucidate the effects of the anti-PD-1 antibodies, FACS analysis was performed on tumor tissue from patient 2941 and patient 2942 treated with either Pembrolizumab, Nivolumab, or IgG control. […] By contrast, there was no effect of either Pembrolizumab or Nivolumab on CD8^+ T cell infiltration for patient 2942, further highlighting the differential response between individuals to PD-1 blockade. CD8^+ T cell infiltration was evaluated in the tumor microenvironment platform with tumor tissue from the same patient, and comparisons for control vs Nivo, control vs Pembro, Nivo vs Pembro, and control vs Nivo vs Pembro for multiple patients are shown in FIG. 6 (each line represents results from the tumor microenvironment platform cultured with tumor tissue from a single individual).
# The effect of Pembrolizumab and Nivolumab on the expression of immunoregulatory molecules, including PD-1 and FOXP3, in the tumor microenvironment platform tumor microbed was evaluated. Tumor sections from the same patient cultured for 3 days (72 hours) in the tumor microenvironment platform were treated with Pembrolizumab, Nivolumab, or IgG control and stained for CD8, FOXP3, and PD-1 at day 3 in culture (T3). Baseline staining was determined at TO. Results are shown in FIG. 7A for tumor sections from a predicted responder to Pembrolizumab or Nivolumab and FIG. 7B for a predicted non-responder to Pembrolizumab or Nivolumab, as characterized by M-score. There was in increase in the number of PD-1^+ cells in the tumor microbed for both Pembrolizumab and Nivolumab, which was to a greater degree in the case of Nivolumab, when compared to IgG control in the responder (FIG. 7A). There was no change for either Pembrolizumab and Nivolumab in the non-responder (FIG. 7B). The numbers of PD-L1^+ tumor cells, PD-1^+ T cells, FOXP3^+ T-regulatory cells, and CD8^+ T cells were evaluated using the tumor microenvironment platform with tumor tissue from the same patient in Nivolumab, Pembrolizumab, and control conditions, and are summarized in Table 3. Comparisons for control vs Nivo, control vs Pembro, Nivo vs Pembro, and control vs Nivo vs Pembro for multiple patients are shown in FIG. 8 (each line represents results from the tumor microenvironment platform cultured with tumor tissue from a single individual).
substance,measurement,setting,value
Nivolumab,M-score,HNSCC tumor tissue [1]; Patient ID 2916,13
same,M-score,HNSCC tumor tissue [1]; Patient ID 2926,31
same,M-score,HNSCC tumor tissue [1]; Patient ID 2939,5
same,M-score,HNSCC tumor tissue [1]; Patient ID 2942,28
same,M-score,HNSCC tumor tissue [1]; Patient ID 2950,16
same,M-score,HNSCC tumor tissue [1]; Patient ID 2963,5
same,M-score,HNSCC tumor tissue [1]; Patient ID 2979,9
same,M-score,HNSCC tumor tissue [1]; Patient ID 2980,12
same,CEACAM PBMCs (% total cells),"PBNCs; CD3+/CD45+ lymphocytes, treated one day, control 0.12",2.74 % total cells
same,LAG3 PBMCs (% total cells),"PBNCs; CD3+/CD45+ lymphocytes, treated one day, control 0.14",0.031 % total cells
same,OX40 PBMCs (% total cells),"PBNCs; CD3+/CD45+ lymphocytes, treated one day, control 0.25",0 % total cells
same,4-1-BB PBMCs (% total cells),"PBNCs; CD3+/CD45+ lymphocytes, treated one day, control 0.27",0.38 % total cells
same,GITR PBMCs (% total cells),"PBNCs; CD3+/CD45+ lymphocytes, treated one day, control 0.30",0.50 % total cells
same,ILDR2 PBMCs (% total cells),"PBNCs; CD3+/CD45+ lymphocytes, treated one day, control 1.96",2.67 % total cells
same,PD-1 PBMCs (% total cells),"PBNCs; CD3+/CD45+ lymphocytes, treated one day, control 2.94",0.31 % total cells
same,TIM3 PBMCs (% total cells),"PBNCs; CD3+/CD45+ lymphocytes, treated one day, control 7.91",13.9 % total cells
same,ILDR2^+/CD3^+/CD45^+ and GITR^+/CD3^+/CD45^+ cell populations,"PBNCs; platform containing only PBNCs, vs IgG control",No significant change
same,M-score,HNSCC tumor tissue [2]; Patient ID 2918,27
same,M-score,HNSCC tumor tissue [2]; Patient ID 2928,19
same,M-score,HNSCC tumor tissue [2]; Patient ID 2941,41
same,M-score,HNSCC tumor tissue [2]; Patient ID 2948,12
same,M-score,HNSCC tumor tissue [2]; Patient ID 2949,11
same,M-score,HNSCC tumor tissue [2]; Patient ID 2956,10
same,M-score,HNSCC tumor tissue [2]; Patient ID 2978,33
same,M-score,HNSCC tumor tissue [2]; Patient ID 2981,6
same,# cells/field PD-1^+,"HNSCC tumor tissue [3]; Patient ID 2916, control 0",0 cells/field
same,# cells/field PD-L1^+,"HNSCC tumor tissue [3]; Patient ID 2916, control 1",2 cells/field
same,# cells/field FOXP3^+,"HNSCC tumor tissue [3]; Patient ID 2916, control 3",4 cells/field
same,# cells/field CD8^+,"HNSCC tumor tissue [3]; Patient ID 2916, control 20",30 cells/field
same,# cells/field PD-1^+,"HNSCC tumor tissue [3]; Patient ID 2918, control 2",0 cells/field
same,# cells/field FOXP3^+,"HNSCC tumor tissue [3]; Patient ID 2918, control 3",2 cells/field
same,# cells/field CD8^+,"HNSCC tumor tissue [3]; Patient ID 2918, control 10",3 cells/field
same,# cells/field PD-L1^+,"HNSCC tumor tissue [3]; Patient ID 2918, control 10",20 cells/field
same,# cells/field PD-1^+,"HNSCC tumor tissue [3]; Patient ID 2926, control 0",0 cells/field
same,# cells/field PD-L1^+,"HNSCC tumor tissue [3]; Patient ID 2926, control 3",3 cells/field
same,# cells/field FOXP3^+,"HNSCC tumor tissue [3]; Patient ID 2926, control 4",3 cells/field
same,# cells/field CD8^+,"HNSCC tumor tissue [3]; Patient ID 2926, control 25",20 cells/field
same,# cells/field PD-1^+,"HNSCC tumor tissue [3]; Patient ID 2928, control 0",0 cells/field
same,# cells/field PD-L1^+,"HNSCC tumor tissue [3]; Patient ID 2928, control 0",3 cells/field
same,# cells/field CD8^+,"HNSCC tumor tissue [3]; Patient ID 2928, control 4",15 cells/field
same,# cells/field FOXP3^+,"HNSCC tumor tissue [3]; Patient ID 2928, control 4",5 cells/field
same,# cells/field CD8^+,"HNSCC tumor tissue [3]; Patient ID 2939, control 0",2 cells/field
same,# cells/field PD-1^+,"HNSCC tumor tissue [3]; Patient ID 2939, control 0",0 cells/field
same,# cells/field FOXP3^+,"HNSCC tumor tissue [3]; Patient ID 2939, control 1",2 cells/field
same,# cells/field PD-L1^+,"HNSCC tumor tissue [3]; Patient ID 2939, control 10",10 cells/field
same,# cells/field PD-1^+,"HNSCC tumor tissue [3]; Patient ID 2941, control 0",2 cells/field
same,# cells/field FOXP3^+,"HNSCC tumor tissue [3]; Patient ID 2941, control 3",2 cells/field
same,# cells/field PD-L1^+,"HNSCC tumor tissue [3]; Patient ID 2941, control 3",5 cells/field
same,# cells/field CD8^+,"HNSCC tumor tissue [3]; Patient ID 2941, control 5",3 cells/field
same,# cells/field PD-1^+,"HNSCC tumor tissue [3]; Patient ID 2942, control 0",0 cells/field
same,# cells/field PD-L1^+,"HNSCC tumor tissue [3]; Patient ID 2942, control 0",0 cells/field
same,# cells/field CD8^+,"HNSCC tumor tissue [3]; Patient ID 2942, control 3",1 cells/field
same,# cells/field FOXP3^+,"HNSCC tumor tissue [3]; Patient ID 2942, control 3",4 cells/field
same,# cells/field FOXP3^+,"HNSCC tumor tissue [3]; Patient ID 2948, control 1",1 cells/field
same,# cells/field PD-1^+,"HNSCC tumor tissue [3]; Patient ID 2948, control 1",0 cells/field
same,# cells/field PD-L1^+,"HNSCC tumor tissue [3]; Patient ID 2948, control 10",1 cells/field
same,# cells/field CD8^+,"HNSCC tumor tissue [3]; Patient ID 2948, control 20",20 cells/field
same,# cells/field PD-1^+,"HNSCC tumor tissue [3]; Patient ID 2949, control 1",3 cells/field
same,# cells/field FOXP3^+,"HNSCC tumor tissue [3]; Patient ID 2949, control 5",5 cells/field
same,# cells/field PD-L1^+,"HNSCC tumor tissue [3]; Patient ID 2949, control 20",20 cells/field
same,# cells/field CD8^+,"HNSCC tumor tissue [3]; Patient ID 2949, control 50",35 cells/field
same,# cells/field PD-1^+,"HNSCC tumor tissue [3]; Patient ID 2956, control 0",0 cells/field
same,# cells/field CD8^+,"HNSCC tumor tissue [3]; Patient ID 2956, control 1",7 cells/field
same,# cells/field PD-L1^+,"HNSCC tumor tissue [3]; Patient ID 2956, control 2",3 cells/field
same,# cells/field FOXP3^+,"HNSCC tumor tissue [3]; Patient ID 2956, control 8",10 cells/field
same,# cells/field PD-1^+,"HNSCC tumor tissue [3]; Patient ID 2963, control 0",0 cells/field
same,# cells/field CD8^+,"HNSCC tumor tissue [3]; Patient ID 2963, control 6",4 cells/field
same,# cells/field FOXP3^+,"HNSCC tumor tissue [3]; Patient ID 2963, control 10",2 cells/field
same,# cells/field PD-L1^+,"HNSCC tumor tissue [3]; Patient ID 2963, control 12",12 cells/field
same,# cells/field PD-1^+,"HNSCC tumor tissue [3]; Patient ID 2978, control 0",0 cells/field
same,# cells/field FOXP3^+,"HNSCC tumor tissue [3]; Patient ID 2978, control 1",1 cells/field
same,# cells/field PD-L1^+,"HNSCC tumor tissue [3]; Patient ID 2978, control 1",1 cells/field
same,# cells/field CD8^+,"HNSCC tumor tissue [3]; Patient ID 2978, control 12",17 cells/field
same,# cells/field PD-1^+,"HNSCC tumor tissue [3]; Patient ID 2979, control 0",0 cells/field
same,# cells/field FOXP3^+,"HNSCC tumor tissue [3]; Patient ID 2979, control 2",1 cells/field
same,# cells/field PD-L1^+,"HNSCC tumor tissue [3]; Patient ID 2979, control 5",5 cells/field
same,# cells/field CD8^+,"HNSCC tumor tissue [3]; Patient ID 2979, control 25",25 cells/field
same,# cells/field PD-1^+,"HNSCC tumor tissue [3]; Patient ID 2980, control 0",0 cells/field
same,# cells/field FOXP3^+,"HNSCC tumor tissue [3]; Patient ID 2980, control 1",1 cells/field
same,# cells/field PD-L1^+,"HNSCC tumor tissue [3]; Patient ID 2980, control 8",1 cells/field
same,# cells/field CD8^+,"HNSCC tumor tissue [3]; Patient ID 2980, control 30",10 cells/field
same,# cells/field FOXP3^+,"HNSCC tumor tissue [3]; Patient ID 2981, control 0",1 cells/field
same,# cells/field PD-1^+,"HNSCC tumor tissue [3]; Patient ID 2981, control 0",0 cells/field
same,# cells/field PD-L1^+,"HNSCC tumor tissue [3]; Patient ID 2981, control 0",0 cells/field
same,# cells/field CD8^+,"HNSCC tumor tissue [3]; Patient ID 2981, control 1",15 cells/field
same,CD8^+ T cell infiltration (IHC),"HNSCC tumor tissue [3]; patient 2941, vs IgG control",increased CD8^+ T cell infiltration
same,number of PD-1^+ cells in the tumor microbed,"HNSCC tumor tissue [3]; predicted non-responder, vs IgG control",no change
same,number of PD-1^+ cells in the tumor microbed,"HNSCC tumor tissue [3]; predicted responder, vs IgG control, to a greater degree in the case of Nivolumab",increase
